Measurements from article PMC8151276, “An Integrated Approach toward NanoBRET Tracers for Analysis of GPCR Ligand Engagement” (Molecules, 2021).

Tests used:
Assay type in all cases: binding
NMUR2 = target: T1, NMUR2 (Homo sapiens, UniProt Q9GZQ4); experiment: NanoBRET screen HiBiT-NMUR2 in HEK293
T1 construct: purchased Promega (in-house HiBiT-GPCR construct library, NanoBRET)
In short: (§1)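 Tracer binding scored as fold response: BRET with tracer alone divided by BRET with 20 μM competing parent compound, cutoff 1.5. Tracers at 1 μM and 0.1 μM, 1.5 h at RT, on HEK293 transiently expressing HiBiT-tagged receptors at low level; complementation with purified LgBiT and furimazine, luminescence at 450 and 600 nm.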

RXFP3 = target: T2, RXFP3 (Homo sapiens, UniProt Q9NSD7); experiment: NanoBRET screen HiBiT-RXFP3 in HEK293
T2 construct: purchased Promega (in-house HiBiT-GPCR construct library, NanoBRET)
T2 sequence (Q9NSD7 1-469): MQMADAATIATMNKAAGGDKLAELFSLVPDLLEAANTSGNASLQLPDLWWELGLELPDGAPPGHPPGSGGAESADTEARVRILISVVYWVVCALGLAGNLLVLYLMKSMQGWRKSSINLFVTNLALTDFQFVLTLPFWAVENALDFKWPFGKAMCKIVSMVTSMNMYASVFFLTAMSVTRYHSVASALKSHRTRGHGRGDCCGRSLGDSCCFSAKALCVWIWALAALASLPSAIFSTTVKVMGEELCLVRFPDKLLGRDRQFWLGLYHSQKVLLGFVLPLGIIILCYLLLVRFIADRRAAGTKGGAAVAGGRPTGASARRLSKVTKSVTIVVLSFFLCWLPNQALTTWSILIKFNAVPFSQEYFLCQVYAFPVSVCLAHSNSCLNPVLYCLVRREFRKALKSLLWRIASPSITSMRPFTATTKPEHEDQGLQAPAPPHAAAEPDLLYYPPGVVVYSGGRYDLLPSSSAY
In short: as §1

ADRB1 = target: T3, ADRB1 (Homo sapiens, UniProt P08588); experiment: NanoBRET screen HiBiT-ADRB1 in HEK293
T3 construct: purchased Promega (in-house HiBiT-GPCR construct library, NanoBRET)

SSTR5 = target: T4, SSTR5 (Homo sapiens, UniProt P35346); experiment: NanoBRET screen HiBiT-SSTR5 in HEK293
T4 construct: purchased Promega (in-house HiBiT-GPCR construct library, NanoBRET)
In short: as §1

OPRL1 = target: T5, OPRL1 (Homo sapiens, UniProt P41146); experiment: NanoBRET screen HiBiT-OPRL1 in HEK293
T5 construct: purchased Promega (in-house HiBiT-GPCR construct library, NanoBRET)
In short: as §1

PTGDR2 = target: T6, PTGDR2 (Homo sapiens, UniProt Q9Y5Y4); experiment: NanoBRET screen HiBiT-PTGDR2 in HEK293
T6 construct: purchased Promega (in-house HiBiT-GPCR construct library, NanoBRET)
T6 sequence (Q9Y5Y4 1-395): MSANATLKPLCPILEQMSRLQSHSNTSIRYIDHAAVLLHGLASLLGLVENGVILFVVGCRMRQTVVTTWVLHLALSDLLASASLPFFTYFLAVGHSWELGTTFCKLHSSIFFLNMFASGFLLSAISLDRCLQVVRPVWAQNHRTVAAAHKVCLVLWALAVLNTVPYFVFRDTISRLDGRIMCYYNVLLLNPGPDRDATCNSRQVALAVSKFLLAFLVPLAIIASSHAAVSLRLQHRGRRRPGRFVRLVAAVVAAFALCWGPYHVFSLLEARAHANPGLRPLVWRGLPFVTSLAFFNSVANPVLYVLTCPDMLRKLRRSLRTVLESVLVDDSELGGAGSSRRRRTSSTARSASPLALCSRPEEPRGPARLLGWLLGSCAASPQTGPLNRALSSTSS
In short: as §1

SSTR2 = target: T7, SSTR2 (Homo sapiens, UniProt P30874); experiment: NanoBRET screen HiBiT-SSTR2 in HEK293
T7 construct: purchased Promega (in-house HiBiT-GPCR construct library, NanoBRET)
In short: as §1

[1] = tracer at 0.1μM, listed as amitriptyline-b-2-NB590
[2] = tracer at 1μM, listed as amitriptyline-b-2-NB590

T4 sequence (P35346 whole entry): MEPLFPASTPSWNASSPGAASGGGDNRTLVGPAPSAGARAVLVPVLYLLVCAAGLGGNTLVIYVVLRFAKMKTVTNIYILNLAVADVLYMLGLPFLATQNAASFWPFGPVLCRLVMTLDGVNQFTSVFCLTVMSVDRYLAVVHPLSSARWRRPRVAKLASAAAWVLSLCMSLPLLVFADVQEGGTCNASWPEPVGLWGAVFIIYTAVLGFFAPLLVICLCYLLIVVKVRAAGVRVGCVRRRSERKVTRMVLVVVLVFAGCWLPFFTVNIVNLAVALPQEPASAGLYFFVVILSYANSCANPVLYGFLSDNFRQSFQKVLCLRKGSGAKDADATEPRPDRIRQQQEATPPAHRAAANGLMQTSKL
T3 sequence (P08588 whole entry): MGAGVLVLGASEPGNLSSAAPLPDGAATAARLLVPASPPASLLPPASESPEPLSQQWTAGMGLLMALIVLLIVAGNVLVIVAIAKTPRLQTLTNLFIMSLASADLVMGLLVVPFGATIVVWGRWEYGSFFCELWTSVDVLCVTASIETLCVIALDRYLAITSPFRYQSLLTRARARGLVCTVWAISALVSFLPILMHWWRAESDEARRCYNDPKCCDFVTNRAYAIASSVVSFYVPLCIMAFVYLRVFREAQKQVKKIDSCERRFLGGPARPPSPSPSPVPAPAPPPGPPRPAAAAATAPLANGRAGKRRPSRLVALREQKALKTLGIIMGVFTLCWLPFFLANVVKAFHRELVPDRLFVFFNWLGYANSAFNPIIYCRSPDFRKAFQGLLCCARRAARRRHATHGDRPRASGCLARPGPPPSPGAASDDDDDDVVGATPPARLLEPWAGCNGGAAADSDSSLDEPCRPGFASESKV
T7 sequence (P30874 whole entry): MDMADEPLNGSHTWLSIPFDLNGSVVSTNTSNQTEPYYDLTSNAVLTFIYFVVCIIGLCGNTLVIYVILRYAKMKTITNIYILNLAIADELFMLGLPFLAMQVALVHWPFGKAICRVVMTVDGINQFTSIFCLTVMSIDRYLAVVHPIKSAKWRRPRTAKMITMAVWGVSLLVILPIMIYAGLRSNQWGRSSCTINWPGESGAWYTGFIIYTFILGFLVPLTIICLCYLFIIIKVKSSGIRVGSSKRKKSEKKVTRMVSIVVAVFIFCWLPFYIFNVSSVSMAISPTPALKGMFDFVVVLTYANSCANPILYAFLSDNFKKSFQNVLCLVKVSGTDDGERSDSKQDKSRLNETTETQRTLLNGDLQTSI
T5 sequence (P41146 whole entry): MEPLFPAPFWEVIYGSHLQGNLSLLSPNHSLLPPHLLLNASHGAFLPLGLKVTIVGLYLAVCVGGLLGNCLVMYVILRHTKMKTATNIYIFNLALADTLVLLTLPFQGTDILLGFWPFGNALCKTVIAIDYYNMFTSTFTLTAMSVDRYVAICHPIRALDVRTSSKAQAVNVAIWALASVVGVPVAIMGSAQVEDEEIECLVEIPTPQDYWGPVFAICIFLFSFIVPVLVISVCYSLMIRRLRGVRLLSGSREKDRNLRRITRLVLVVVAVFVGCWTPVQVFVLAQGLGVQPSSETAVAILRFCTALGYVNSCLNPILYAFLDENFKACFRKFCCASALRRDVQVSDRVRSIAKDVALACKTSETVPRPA
T1 sequence (Q9GZQ4 whole entry): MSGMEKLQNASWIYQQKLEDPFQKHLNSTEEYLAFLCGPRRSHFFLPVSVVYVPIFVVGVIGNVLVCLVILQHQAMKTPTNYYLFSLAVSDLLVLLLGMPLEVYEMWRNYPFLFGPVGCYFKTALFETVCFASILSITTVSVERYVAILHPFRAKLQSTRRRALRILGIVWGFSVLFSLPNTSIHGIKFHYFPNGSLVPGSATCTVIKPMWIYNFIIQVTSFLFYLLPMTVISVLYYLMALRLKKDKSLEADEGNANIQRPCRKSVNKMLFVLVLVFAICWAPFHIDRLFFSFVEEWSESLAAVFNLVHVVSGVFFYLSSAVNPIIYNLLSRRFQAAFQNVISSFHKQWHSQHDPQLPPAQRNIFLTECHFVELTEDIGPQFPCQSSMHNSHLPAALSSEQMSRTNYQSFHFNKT

| Compound | NanoBRET Fold Response (NMUR2; NMUR2, tracer 0.1μM) | NanoBRET Fold Response (NMUR2; NMUR2, tracer 1μM) | NanoBRET Fold Response (RXFP3; RXFP3, tracer 0.1μM) | NanoBRET Fold Response (RXFP3; RXFP3, tracer 1μM) | NanoBRET Fold Response (ADRB1; ADRB1, tracer 0.1μM) | NanoBRET Fold Response (ADRB1; ADRB1, tracer 1μM) | NanoBRET Fold Response (SSTR5; SSTR5, tracer 0.1μM) | NanoBRET Fold Response (SSTR5; SSTR5, tracer 1μM) | NanoBRET Fold Response (OPRL1; OPRL1, tracer 0.1μM) | NanoBRET Fold Response (OPRL1; OPRL1, tracer 1μM) | NanoBRET Fold Response (PTGDR2; PTGDR2, tracer 0.1μM) | NanoBRET Fold Response (PTGDR2; PTGDR2, tracer 1μM) | NanoBRET Fold Response (SSTR2; SSTR2, tracer 0.1μM) | NanoBRET Fold Response (SSTR2; SSTR2, tracer 1μM) | further results |
| --- | --- | --- | --- | --- | --- | --- | --- | --- | --- | --- | --- | --- | --- | --- | --- |
| Cc1cc2c(s1)Nc1ccccc1N=C2N1CCN(CCCNC(=O)CCOCCOCCOCCOCCNC(=O)CCc2ccc3n2[B-](F)(F)[N+]2=C(c4ccc[nH]4)C=CC2=C3)CC1 [Olanzapine-a-2-NB590] | 0.94 | 0.98 | 0.97 | 1.11 | 1.01 | 0.97 | 1.01 | 1.02 | 1.02 | 0.47 | 0.97 | 0.96 | 1.03 | 0.96 | – |
| N#CN=C(NCCCOc1cccc(CN2CCCCC2)c1)NCCNC(=O)CCOCCOCCOCCOCCNC(=O)CCc1ccc2n1[B-](F)(F)[N+]1=C(c3ccc[nH]3)C=CC1=C2 [Aminopotentidine-2-NB590] | 1.02 | 1.05 | 1.04 | 0.97 | 1.01 | 0.99 | 0.97 | 1.00 | 1.05 | 1.01 | 0.98 | 0.48 | 0.98 | 1.02 | – |
| Cc1nc2n(c(=O)c1CCN1CCC(c3noc4cc(F)ccc34)CC1)CCCC2OC(=O)NCCOCCOCCOCCOCCNC(=O)CCc1ccc2n1[B-](F)(F)[N+]1=C(c3ccc[nH]3)C=CC1=C2 (stereo not drawn) [Risperidone-2-NB590] | 1.09 | 1.05 | 1.00 | 1.00 | 0.98 | 1.05 | 1.01 | 1.02 | 0.97 | 0.96 | 0.99 | 0.96 | 0.98 | 1.01 | – |
| CN(C)CCC=C1c2ccccc2CCc2ccc(C(=O)NCCNC(=O)CCOCCOCCOCCOCCNC(=O)CCc3ccc4n3[B-](F)(F)[N+]3=C(c5ccc[nH]5)C=CC3=C4)cc21 [Amitriptyline-b-2-NB590] | – | – | – | – | – | – | – | – | – | – | – | – | – | – | NanoBRET Fold Response (NMUR2; [1]): 0.99; NanoBRET Fold Response (NMUR2; [2]): 1.00; NanoBRET Fold Response (RXFP3; [1]): 0.98; NanoBRET Fold Response (RXFP3; [2]): 1.03; NanoBRET Fold Response (ADRB1; [2]): 0.96; NanoBRET Fold Response (SSTR5; [1]): 0.96; NanoBRET Fold Response (SSTR5; tracer at 1μM): 0.97; NanoBRET Fold Response (OPRL1; [1]): 1.14; NanoBRET Fold Response (OPRL1; [2]): 1.14; NanoBRET Fold Response (PTGDR2; tracer at 0.1μM): 1.00; NanoBRET Fold Response (PTGDR2; tracer at 1μM): 1.00; NanoBRET Fold Response (SSTR2; tracer at 1μM): 0.99 |
